Series [1] relates to Jurkat cells. Kind of series: Fe(III) supplementation cell viability study. It counts as cell-based, human. The conditions noted are these: Jurkat supplemented with 2 μM and 5 μM Fe(III) as Fe(Citrate)2 two hours before 2 μM DefNEtTrp, 72 h. On the procedure:
Fe(III) supplementation cell viability study. Jurkat cells were seeded into 96-well plates, as indicated in the MTT assay described above. One group of cells was supplemented with 2 μM [Fe(citrate)2]^5− (prepared in situ) while another was supplemented with 5 μM [Fe(citrate)2]^5−. Another group of cells were treated with media alone. After 2 h incubation, half of the cells supplemented with [Fe(citrate)2]^5− were treated with 2 μM DefNEtTrp while the other half was treated with media alone. The final percentage of DMF was maintained at 0.5% (v/v). The MTT assay was performed with these samples (n=6). A student t-test was performed to evaluate the difference in the viability of cells treated with DefNEtTrp and supplemented with and without [Fe(citrate)2]^5−.

For another series, the system named is Leukemia cell lines. Kind of series: NCI 60 five-dose screen, leukemia panel. It counts as cell-based, human. On the procedure: (§1) National Cancer Institute Cancer Cell Line (NCI 60) Screen of DefNEtTrp. Details of the methodology for NCI 60 cell line screening are described at http://dtp.nci.nih.gov/branches/btb/ivclsp.html. The cells, grown in supplemented RPMI-1640 medium, are seeded in 96 well plates at an appropriate density and incubated for 24 h. The test compounds are dissolved in DMSO and incubated with cells at a single dose of 10.0 μM for 48 h. The assay is terminated by addition of cold trichloroacetic acid, and the cells are fixed and stained with sulforhodamine B. Bound stain is solubilized, and the absorbance is read on an automated plate reader. […] Using the seven absorbance measurements [time zero, […], control growth, (C), and test growth in the presence of drug at the five concentration levels (Tf)], the percentage growth was calculated at each of the drug concentrations levels as: [(Tf−Ti)/(C−Ti)]×100 for concentrations for which Tf≥Ti and [(Tf−Ti)/Ti]×100 for concentrations for which Tf<Ti. Three-dose response parameters (GI50, TGI, and LC50) were calculated for each of the experimental agents in five dose assay. Growth inhibition of 50% (GI50) was calculated from 100×[(Tf−Ti)/(C−Ti)]=50, which was the drug concentration resulting in a 50% reduction in the net protein increase (as measured by sulforhodamine B, SRB staining) in control cells during the drug incubation. The total growth inhibition (TGI) was calculated from Tf=Ti, which was the drug concentration resulting in total growth inhibition and signified the cytostatic effect. The 50% cellular death (LC50) was calculated from 100×[(Tf−Ti)/Ti]=−50, indicating a net loss of cells following treatment which indicated the concentration of drug resulting in a 50% reduction in the measured protein at the end of the drug treatment as compared to that at the beginning. […] Log GI50, log TGI, and log LC50 are the logarithm molar concentrations producing 50% growth inhibition (GI50), a total growth inhibition (TGI), and a 50% cellular death (LC50), respectively.

The test system of series [2] is NCI 60 human tumor cell lines. Kind of series: NCI 60 cancer cell line screen, all cell lines tested. In kind it is cell-based. The note with it: 48 h. The method, then:
as §1

Series [3] concerns Jurkat cells. Kind of series: Ferroptosis mechanistic cell viability study (ferrostatin-1). It counts as cell-based, human. The note with it: 10 μM Fer-1 pretreatment, 2 μM DefNEtTrp, 72 h. The method, then: Ferroptosis mechanistic cell viability study. Jurkat cells were seeded into 96-well plates, as indicated in the MTT assay described above The cells were treated with 10 μM of the ferroptosis inhibitor ferrostatin-1 (Fer-1). Another group of cells were treated with media alone. After 1 h incubation, half of the cells supplemented with Fer-1 were treated with 2 μM DefNEtTrp or 25 μM [Fe(citrate)2]^5−, as positive control, while the other half was treated with media alone. The final percentage of DMF was maintained at 0.5% (v/v). The MTT assay was performed with these samples (n=6). A student t-test was performed to evaluate the difference in the viability of cells treated with DefNEtTrp or [Fe(citrate)2]^5− and supplemented with and without Fer-1.

The next series concerns red blood cells. Kind of series: CO-ADD hemolysis assay. It counts as cell-based, human. The note with it: up to a concentration of 50.3 μM; human red blood cells, 1 h at 37° C. The method, then: CO-ADD hemolysis assay. Dry compounds ranging from 1-2 mg were delivered to the CO-ADD. The compounds were solubilized to a stock concentration of 10 mg/mL in DMSO. Samples were serially diluted 1:2 fold in water to final testing concentrations of […] while keeping the final DMSO concentration to a maximum of 0.32% (v/v). Each sample concentration was prepared in polypropylene 384-well plates (Corning 3657) for hemolysis assays, all in two duplicate plates (n=2). All sample preparation was conducted using liquid handling robots. Human whole blood (Australian Red Cross) was washed three times with three volumes of 0.9% NaCl (w/v) and resuspended in a concentration of […], determined by manual cell count in a Neubauer hemocytometer. Washed cells were added to the compound-containing plates for a final volume of 50 μL. After a 10 min shake on a plate shaker the plates were then incubated for 1 h at 37° C. After incubation, the plates were centrifuged at 1000 g for 10 min to pellet cells and debris, 25 μL of the supernatant was then transferred to reading plates (384 well, polystyrene plated (PS), Corning CLS3680), with hemolysis determined by measuring the supernatant absorbance at […] (OD405) using a Tecan M1000 Pro monochromator plate reader. HC10 and HC50 (concentration at 10% and 50% hemolysis, respectively) were calculated by curve fitting the inhibition values vs. log(concentration) using a sigmoidal dose-response function with variable fitting values for the top, bottom, and slope. The maximal percentage of hemolysis is reported as Dmax. Hemolysis samples are classified by HC10≤32 μg/mL. […] Melittin was used in 8 concentrations in 2-fold serial dilutions with 50 µg/mL being the highest concentration.

Another series has as its system Renal cancer cell lines. Kind of series: NCI 60 five-dose screen, renal panel. In kind it is cell-based, human. The conditions noted are these: 48 h. The method, then: (§2) National Cancer Institute Cancer Cell Line (NCI 60) Screen of DefNEtTrp. Details of the methodology for NCI 60 cell line screening are described at http://dtp.nci.nih.gov/branches/btb/ivclsp.html. The cells, grown in supplemented RPMI-1640 medium, are seeded in 96 well plates at an appropriate density and incubated for 24 h. The test compounds are dissolved in DMSO and incubated with cells at a single dose of 10.0 μM for 48 h. The assay is terminated by addition of cold trichloroacetic acid, and the cells are fixed and stained with sulforhodamine B. Bound stain is solubilized, and the absorbance is read on an automated plate reader. […] Using the seven absorbance measurements [time zero, […], control growth, (C), and test growth in the presence of drug at the five concentration levels (Tf)], the percentage growth was calculated at each of the drug concentrations levels as: [(Tf−Ti)/(C−Ti)]×100 for concentrations for which Tf≥Ti and [(Tf−Ti)/Ti]×100 for concentrations for which Tf<Ti. Three-dose response parameters (GI50, TGI, and LC50) were calculated for each of the experimental agents in five dose assay. […] The total growth inhibition (TGI) was calculated from Tf=Ti, which was the drug concentration resulting in total growth inhibition and signified the cytostatic effect. […]

Series [4] has as its system Non-Small Cell Lung cancer cell lines. Kind of series: NCI 60 five-dose screen, non-small cell lung panel. The note with it: 48 h. It counts as cell-based, human. On the procedure:
as §2

Where [5] appears, read: cell lines in which TGI was observed.
Setting [6] is: Homo sapiens, read-out: GI50 (calculated average).

Take `Nc1cccnc1/C=N/NC(=S)NCCNC(=O)c1ccc(-n2nc(-c3ccccc3O)nc2-c2ccccc2O)cc1` [DefNEtTrp, deferasirox nitrogen ethyl triapine]: in the series on Jurkat cells [1], the “viability relative to the non-supplemented group” value is “significant increase in viability”. For the same compound, the GI50 in the series with Leukemia cell lines (Homo sapiens, Leukemia, five-dose, 48 h, read-out: GI50 (calculated average)) is 0.29 µM; in series [2] (Homo sapiens, five-dose assay, average over all cell lines, read-out: average GI50 concentration, all cell lines) it was 1.2 µM; in the series on Renal cancer cell lines (setting [6]), 4.97 µM; in series [4] (setting [6]) it was 0.73 µM. In addition, the “TGI (calculated average)” value in the series with Leukemia cell lines (Leukemia, five-dose, 48 h, cell lines in which TGI was observed) was 1.78 µM; with Renal cancer cell lines (setting [5]) it was 13.71 µM; in series [4] (setting [5]) it was 6.33 µM. Also, the “antiproliferative behavior against all leukemia cell lines in the NCI screen” value in the series on Leukemia cell lines (NCI screen) is recorded as roughly 100%. In addition, in series [2] (Homo sapiens, five-dose assay, average over cell lines with 50% cell death), the 50% lethal concentration (LC50) is 38.9 µM. In series [2] (five-dose assay), the “share of cell lines tested with total cell growth inhibition” value was found to be 77%. Besides, the “share of tested cell lines with 50% cell death” value in series [2] (five-dose assay) was 14%. Besides, the “average TGI concentration” value in series [2] (five-dose assay, average over cell lines in which TGI was observed) is 8.5 µM. In series [2] (one-dose test of 10 μM), the “antiproliferative activity in one-dose test” value was “very promising broad spectrum antiproliferative activity”. Further, the “change in cell viability of cells pretreated with Fer-1” value with Jurkat cells [3] was “two-fold increase in the cell viability”. The same compound had a hemolysis in the series on red blood cells of roughly 5%.
